Results from ChEMBL document CHEMBL6177950, “Discovery of potent and selective CDK2 inhibitors with high safety and favorable bioavailability for the treatment of cancer” (Eur J Med Chem, 2025).
The source made the active and inactive calls. The rule behind the calls is not given here.

Assays:
[1] = MRT (0 to infinity) in Sprague-Dawley rat at 20 mg/kg, po by LC-MS/MS analysis; type: ADME, organism-based; conditions: in vivo
OVCAR-3 [2] = experiment: Induction of apoptosis in human OVCAR-3 cells assessed as early apoptotic cells at 1 uM incubated for 24 hrs by Annexin V-FITC/PI staining based flow cytometry analysis (reference value: 1.25%); type: functional
OVCAR-3 [3] = experiment: Induction of apoptosis in human OVCAR-3 cells assessed as late apoptotic cells at 2 uM incubated for 24 hrs by Annexin V-FITC/PI staining based flow cytometry analysis (reference value: 2.67%); type: functional
[4] = biological target: Cyclin-dependent kinase 4/cyclin D1 (Homo sapiens, UniProt P11802); experiment: Inhibition of CDK4/Cyclin D1 (unknown origin) pre-incubated for 10 mins followed by ATP/substrate addition and measured after 60 mins by ADP-Glo assay; type: protein-complex assay
Cyclin-dependent kinase 4/cyclin D1, sequence (P11802 whole entry): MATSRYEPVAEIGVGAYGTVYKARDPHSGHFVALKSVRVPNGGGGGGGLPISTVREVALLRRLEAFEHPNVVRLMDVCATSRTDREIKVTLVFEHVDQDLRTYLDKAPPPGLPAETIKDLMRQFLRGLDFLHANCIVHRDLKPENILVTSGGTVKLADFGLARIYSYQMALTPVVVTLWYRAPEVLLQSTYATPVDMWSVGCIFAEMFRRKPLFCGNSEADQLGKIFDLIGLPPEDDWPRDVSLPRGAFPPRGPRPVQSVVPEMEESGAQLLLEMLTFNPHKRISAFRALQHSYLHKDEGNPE
Cyclin-dependent kinase 4/cyclin D1, sequence (P24385 whole entry, further chain): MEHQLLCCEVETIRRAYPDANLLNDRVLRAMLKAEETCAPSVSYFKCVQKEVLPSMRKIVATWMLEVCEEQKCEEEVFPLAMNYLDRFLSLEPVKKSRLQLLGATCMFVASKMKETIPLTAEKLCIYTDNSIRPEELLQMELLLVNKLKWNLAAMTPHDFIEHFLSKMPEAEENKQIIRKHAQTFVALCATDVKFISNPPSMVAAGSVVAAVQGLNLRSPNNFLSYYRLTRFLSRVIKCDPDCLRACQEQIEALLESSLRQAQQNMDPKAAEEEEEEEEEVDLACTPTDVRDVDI

[5] = Acute toxicity in ICR mouse assessed as pathological changes in kidney at 1000 to 2500 mg/kg, po administered once for 14 days by H and E staining analysis; type: organism-based; conditions: in vivo, 336 h, dose 1000-2500 mg/kg, time 14 day
[6] = Acute toxicity in ICR mouse assessed as pathological changes in spleen at 1000 to 2500 mg/kg, po administered once for 14 days by H and E staining analysis; type: organism-based; conditions: in vivo, 336 h, dose 1000-2500 mg/kg, time 14 day
[7] = Clearance in Sprague-Dawley rat at 20 mg/kg, po by LC-MS/MS analysis; type: ADME, organism-based; conditions: in vivo
OVCAR-3 [8] = experiment: Induction of apoptosis in human OVCAR-3 cells incubated for 24 hrs by Annexin V-FITC/PI staining based flow cytometry analysis; type: functional, cell-based; conditions: dose 1-2 µM
CDK1/Cyclin A = CDK1/Cyclin A (Homo sapiens, UniProt P06493); experiment: Inhibition of CDK1/Cyclin A2 (unknown origin) pre-incubated for 10 mins followed by ATP/substrate addition and measured after 60 mins by ADP-Glo assay; type: protein-complex assay
CDK1/Cyclin A, sequence (P06493 whole entry): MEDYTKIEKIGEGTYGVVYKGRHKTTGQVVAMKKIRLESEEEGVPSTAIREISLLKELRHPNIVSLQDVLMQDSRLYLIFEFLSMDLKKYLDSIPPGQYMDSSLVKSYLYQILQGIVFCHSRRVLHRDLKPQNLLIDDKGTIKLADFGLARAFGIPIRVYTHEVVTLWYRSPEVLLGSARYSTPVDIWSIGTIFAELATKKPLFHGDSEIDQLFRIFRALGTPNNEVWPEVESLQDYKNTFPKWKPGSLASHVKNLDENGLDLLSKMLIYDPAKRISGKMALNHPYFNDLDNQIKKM
CDK1/Cyclin A, sequence (P20248 whole entry, further chain): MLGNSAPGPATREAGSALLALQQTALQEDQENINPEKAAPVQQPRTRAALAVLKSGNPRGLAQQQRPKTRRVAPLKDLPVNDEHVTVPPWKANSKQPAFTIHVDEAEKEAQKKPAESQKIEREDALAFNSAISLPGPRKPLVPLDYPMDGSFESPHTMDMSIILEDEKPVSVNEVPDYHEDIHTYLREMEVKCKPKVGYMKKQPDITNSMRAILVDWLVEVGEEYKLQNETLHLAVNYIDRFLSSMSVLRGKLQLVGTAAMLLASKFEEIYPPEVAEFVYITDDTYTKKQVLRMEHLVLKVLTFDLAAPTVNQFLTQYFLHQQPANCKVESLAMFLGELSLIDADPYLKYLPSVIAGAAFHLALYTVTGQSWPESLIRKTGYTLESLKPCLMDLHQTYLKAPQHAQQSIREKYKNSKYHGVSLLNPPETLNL

[9] = Clearance in Sprague-Dawley rat at 2 mg/kg, iv by LC-MS/MS analysis; type: ADME, organism-based; conditions: in vivo
[10] = Tmax in Sprague-Dawley rat at 20 mg/kg, po by LC-MS/MS analysis; type: ADME, organism-based; conditions: in vivo
OVCAR-3 [11] = experiment: Induction of cell cycle arrest in human OVCAR-3 cells assessed as accumulation of cells at G1 phase at 2 uM incubated for 24 hrs by flow cytometry analysis (reference value: 67.73%); type: functional
[12] = Half life in Sprague-Dawley rat at 20 mg/kg, po by LC-MS/MS analysis; type: ADME, organism-based; conditions: in vivo
[13] = Acute toxicity in ICR mouse assessed as pathological changes in liver at 1000 to 2500 mg/kg, po administered once for 14 days by H and E staining analysis; type: organism-based; conditions: in vivo, 336 h, dose 1000-2500 mg/kg, time 14 day
[14] = Acute toxicity in ICR mouse assessed as increase in body weight at 1000 to 2500 mg/kg, po administered once and measured after 1 week; type: organism-based; conditions: in vivo, 168 h, dose 1000-2500 mg/kg, time 1 weeks
OVCAR-3 [15] = experiment: Downregulation of proliferation-related signaling pathway gene expression in human OVCAR-3 cells by GSEA; type: functional, cell-based
OVCAR-3 [16] = experiment: Induction of apoptosis in human OVCAR-3 cells assessed as necrotic cells at 2 uM incubated for 24 hrs by Annexin V-FITC/PI staining based flow cytometry analysis (reference value: 0.87%); type: functional
MCF7 = experiment: Antiproliferative activity against wild type human MCF7 cells assessed as cell growth inhibition; type: functional, cell-based
[17] = Acute toxicity in ICR mouse assessed as animal death at 1000 to 2500 mg/kg, po administered once for 14 days; type: organism-based; conditions: in vivo, 336 h, dose 1000-2500 mg/kg, time 14 day
OVCAR-3 [18] = experiment: Induction of apoptosis in human OVCAR-3 cells assessed as viable cells at 2 uM incubated for 24 hrs by Annexin V-FITC/PI staining based flow cytometry analysis (reference value: 95.2%); type: functional; conditions: read-out: Activity
OVCAR-3 [19] = experiment: Induction of cell cycle arrest in human OVCAR-3 cells assessed as accumulation of cells at G1 phase at 1 uM incubated for 24 hrs by flow cytometry analysis (reference value: 67.73%); type: functional
[20] = Acute toxicity in ICR mouse assessed as reduction in body weight at 1000 to 2500 mg/kg, po administered once and measured immediately; type: organism-based; conditions: in vivo, dose 1000-2500 mg/kg
[21] = Oral bioavailability in Sprague-Dawley rat at 20 mg/kg by LC-MS/MS analysis; type: ADME, organism-based; conditions: in vivo
[22] = Cmax in Sprague-Dawley rat at 20 mg/kg, po by LC-MS/MS analysis; type: ADME, organism-based; conditions: in vivo
[23] = AUC (0 to infinity) in Sprague-Dawley rat at 2 mg/kg, iv by LC-MS/MS analysis; type: ADME, organism-based; conditions: in vivo
[24] = Acute toxicity in ICR mouse assessed as pathological changes in heart at 1000 to 2500 mg/kg, po administered once for 14 days by H and E staining analysis; type: organism-based; conditions: in vivo, 336 h, dose 1000-2500 mg/kg, time 14 day
[25] = Antiproliferative activity against Palbociclib-resistance human MCF7 cells assessed as cell growth inhibition; type: functional, cell-based, Palbociclib-resistant MCF7 cell
[26] = Toxicity in nude BALB/c mouse xenografted with human OVCAR-3 cells assessed as increase in body weight at 40 to 80 mg/kg, po administered once daily for 21 days; type: organism-based; conditions: in vivo, 504 h, dose 40-80 mg/kg, time 21 day
OVCAR-3 [27] = experiment: Antitumor activity against human OVCAR-3 cells xenografted in nude BALB/c mouse assessed as reduction in tumor cells at 40 to 80 mg/kg, po administered once daily for 21 days by H and E staining analysis; type: functional, organism-based; conditions: dose 40-80 mg/kg, time 21.0 day
OVCAR-3 [28] = experiment: Upregulation of JUN gene expression in human OVCAR-3 cells by GSEA; type: functional, cell-based
[29] = AUC (0 to infinity) in Sprague-Dawley rat at 20 mg/kg, po by LC-MS/MS analysis; type: ADME, organism-based; conditions: in vivo
OVCAR-3 [30] = experiment: Antitumor activity against human OVCAR-3 cells xenografted in nude BALB/c mouse model assessed as tumor growth inhibition administered as po once daily for 21 days; type: functional, organism-based; conditions: dose 40-80 mg/kg, time 21.0 day
OVCAR-3 [31] = experiment: Induction of cell cycle arrest in human OVCAR-3 cells assessed as inhibition of RB phosphorylation level incubated for 24 hrs by Western blot analysis; type: functional, cell-based
[32] = Acute toxicity in ICR mouse assessed as effect on lung weight at 1000 to 2500 mg/kg, po administered once for 14 days; type: organism-based; conditions: in vivo, 336 h, dose 1000-2500 mg/kg, time 14 day
OVCAR-3 [33] = experiment: Inhibition of colony formation in CCNE1-amplified human OVCAR-3 incubated for 2 weeks by crystal violet staining based inverted microscopic analysis; type: functional, cell-based; conditions: dose 1-4 µM
OVCAR-3 [34] = experiment: Induction of apoptosis in human OVCAR-3 cells assessed as early apoptotic cells at 2 uM incubated for 24 hrs by Annexin V-FITC/PI staining based flow cytometry analysis (reference value: 1.25%); type: functional
CDK6/cyclin D3 = CDK6/cyclin D3 (Homo sapiens, UniProt Q00534); experiment: Inhibition of CDK6/Cyclin D3 (unknown origin) pre-incubated for 10 mins followed by ATP/substrate addition and measured after 120 mins by ADP-Glo assay; type: protein-complex assay
CDK6/cyclin D3, sequence (P30281 whole entry): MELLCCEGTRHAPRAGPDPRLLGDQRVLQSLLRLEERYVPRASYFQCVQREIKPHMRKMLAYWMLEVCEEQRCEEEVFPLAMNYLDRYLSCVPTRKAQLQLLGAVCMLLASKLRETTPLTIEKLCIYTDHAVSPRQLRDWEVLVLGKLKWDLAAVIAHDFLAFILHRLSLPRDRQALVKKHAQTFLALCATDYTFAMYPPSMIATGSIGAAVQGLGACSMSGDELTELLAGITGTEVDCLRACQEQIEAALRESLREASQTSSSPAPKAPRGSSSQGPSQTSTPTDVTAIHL
CDK6/cyclin D3, sequence (Q00534 whole entry): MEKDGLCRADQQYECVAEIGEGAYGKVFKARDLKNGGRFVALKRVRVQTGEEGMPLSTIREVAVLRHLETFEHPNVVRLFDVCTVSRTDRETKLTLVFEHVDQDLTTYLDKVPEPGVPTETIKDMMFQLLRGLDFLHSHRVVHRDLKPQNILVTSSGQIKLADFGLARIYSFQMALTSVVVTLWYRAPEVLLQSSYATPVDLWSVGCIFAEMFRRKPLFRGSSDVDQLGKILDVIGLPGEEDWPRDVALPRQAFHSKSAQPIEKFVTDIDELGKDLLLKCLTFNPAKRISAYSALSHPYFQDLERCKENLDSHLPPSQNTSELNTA

[35] = biological target: Cyclin-dependent kinase 2/cyclin E1 (Homo sapiens, UniProt P24941); experiment: Inhibition of CDK2/Cyclin E1 (unknown origin) pre-incubated for 10 mins followed by ATP/substrate addition and measured after 60 mins by ADP-Glo assay; type: protein-complex assay

`CCC(C)n1cc(-c2nc(NC3CCN(S(=O)(=O)C4CC4)CC3)ncc2F)cc(F)c1=O` (stereo not drawn) gave an MRT inf [1] of 6.7 h, an Activity (OVCAR-3 [2]) of 2.65% and an Activity (OVCAR-3 [3]) of 13.2%. For the same molecule, the IC50 [4] was 0.103 µM, the Activity [5] was “Non-toxic” and the Activity [6] was “Non-toxic”. The CL/F [7] was 29.2 mL/min/kg, the Activity (OVCAR-3 [8]) was “Dose-dependent-effect” and the IC50 (CDK1/Cyclin A) was 0.015 µM. The clearance [9] was 28.3 mL/min/kg, the Tmax [10] was 0.5 h and the Activity (OVCAR-3 [11]) was 96.27%. For the same molecule, the half-life [12] was 4.54 h, the Activity [13] was “Non-toxic” and the Activity [14] was “Non-toxic”. The Activity (OVCAR-3 [15]) was “Active”, the Activity (OVCAR-3 [16]) was 3.74% and the IC50 (MCF7) was 0.186 µM. For the same molecule, the Activity [17] was “Non-toxic”, the viability at 2 µM (OVCAR-3 [18]) was 79.3% and the Activity (OVCAR-3 [19]) was 94.69%. For the same molecule, the Activity [20] was “Toxic”, the bioavailability [21] was 79.5% and the Cmax [22] was 2130 ng/mL. The AUC(0-inf) [23] was 1480 ng·h/mL, the Activity [24] was “Non-toxic” and the IC50 [25] was 0.954 µM. For the same molecule, the Activity [26] was “Non-toxic”, the Activity (OVCAR-3 [27]) was “Active” and the Activity (OVCAR-3 [28]) was “Active”. For the same molecule, the AUC(0-inf) [29] was 11800 ng·h/mL, the Activity (OVCAR-3 [30]) was “Dose-dependent-effect” and the Activity (OVCAR-3 [31]) was “Active”. For the same molecule, the Activity [32] was “Non-toxic”, the inhibition (OVCAR-3 [33]) was “Dose-dependent-effect” and the Activity (OVCAR-3 [34]) was 3.81%. The IC50 (CDK6/cyclin D3) was 0.171 µM and the IC50 [35] was 0.0009 µM.
